Data set [1] can be described thus: log P determination by HPLC (EEC Directive 79/831 Annex V.A8). The format is physicochemical. On the procedure:
The measurements were carried out using an Agilent 1100 LC system with a 50*4.6 Zorbax Eclipse C18 1.8 μm column (oven temperature 55° C., flow rate 2.0 ml/min).
The following mobile phases were used:
Mobile phase A: acetonitrile+1000 μl of formic acid/l
Mobile phase B: Millipore water+900 μl of formic acid/l

For data set [2], the system named is caterpillars of the armyworm (Spodoptera frugiperda). Put plainly: Spodoptera frugiperda test (SPODFR spray treatment). Particulars: Spodoptera frugiperda, foliar, read-out: effect in % (caterpillars killed). The format is in vivo. From the text:
(§1) Solvent: 78.0 parts by weight of acetone

Data set [3] deals with green peach aphid (Myzus persicae). The experiment in a line: Myzus test (MYZUPE spray treatment). The settings on record: Myzus persicae, foliar, read-out: effect in % (aphids killed). The format is in vivo.
From the text: Solvent: 78 parts by weight of acetone
as §1

Data set [4] has as its system larvae of the mustard beetle (Phaedon cochleariae). The experiment in a line: Phaedon test (PHAECO spray treatment). Particulars: Phaedon cochleariae, in Brassica rapa, foliar, read-out: effect in % (beetle larvae killed).
The mark [5] stands for this setting: reversed-phase HPLC, Zorbax Eclipse C18 column, determined by HPLC according to EEC Directive 79/831 Annex V.A8, read-out: log P.
Setting [6] is: application rate 100 g/ha, maize leaf discs.
Where [7] appears, read: application rate 100 g/ha, Chinese cabbage leaf discs.

Molecules are shown by their SMILES. Like-named read-outs stand apart in the source and are kept apart here.

In the case of `Cc1cc(C#N)cc(C(=O)NC(C)(C)C)c1NC(=O)c1cc(Cn2nnnc2C(F)(F)F)nn1-c1ncccc1F` [Example 509], the chromatographic logP in data set [1] (setting [5]) was found to be 2.92. Further, the pest or weed control at 100 g/ha in data set [2] (setting [6]), in data set [3] (setting [7]) and in data set [4] was no less than 80% each time.
On to `Cc1cc(C#N)cc(C(=O)NC2CC2)c1NC(=O)c1cc(Cn2nnc(C(F)F)n2)nn1-c1ncccc1Cl` [Example 264], for which the chromatographic logP in data set [1] (log P) is 2.39. The pest or weed control at 100 g/ha in data set [2] (in Zea mays), in data set [3] (in Brassica rapa) and in data set [4] was no less than 80% each time.
As for `Cc1cc(Cl)cc(C(=O)NC(C)C)c1NC(=O)c1cc(Cn2nnc(C(F)(F)C(F)(F)F)n2)nn1-c1ncccc1Cl` [Example 129], the chromatographic logP in data set [1] (log P) was found to be 3.94. Also, the pest or weed control at 100 g/ha in data set [2] (in Zea mays), in data set [3] (in Brassica rapa) and in data set [4] was no less than 80% throughout.
With `CNC(=O)c1cc(I)cc(C)c1NC(=O)c1cc(Cn2nnc(C(F)F)n2)nn1-c1ncccc1Cl` [Example 273], the chromatographic logP in data set [1] (log P) was found to be 2.73. Besides, the pest or weed control at 100 g/ha in data set [2] (in Zea mays), in data set [3] (in Brassica rapa) and in data set [4] was no less than 80% throughout.
For the compound `Cc1cc(C)c(NC(=O)c2cc(Cn3nnnc3C(F)(F)F)nn2-c2ncccc2Cl)c(C(=O)NC2CC2)c1` [Example 180], the chromatographic logP in data set [1] (log P) was 2.71. For the same compound, the pest or weed control at 100 g/ha in data set [2] (in Zea mays), in data set [3] (in Brassica rapa) and in data set [4] was no less than 80% in each case.
Consider `CC(C)(C)NC(=O)c1cc(Cl)cc(Cl)c1NC(=O)c1cc(Cn2nnnc2C(F)(F)F)nn1-c1ncccc1Cl` [Example 177], for which the chromatographic logP in data set [1] (log P) was 3.43. Also, the pest or weed control at 100 g/ha in data set [2] (in Zea mays), in data set [3] (in Brassica rapa) and in data set [4] was no less than 80% each time.
Consider `Cc1cc(C#N)cc(C(=O)NC(C)C2CC2)c1NC(=O)c1cc(Cn2nnnc2C(F)F)nn1-c1ncccc1Cl` (stereo not drawn) [Example 467], for which the chromatographic logP in data set [1] (log P) worked out at 2.58. Further, the pest or weed control at 100 g/ha in data set [2] (in Zea mays), in data set [3] (in Brassica rapa) and in data set [4] was no less than 80% throughout.
As for `Cc1cc(C#N)cc(C(=O)NC(C)C(F)(F)F)c1NC(=O)c1cc(Cn2nnc(C(F)(F)F)n2)nn1-c1ncccc1Cl` (stereo not drawn) [Example 433], the chromatographic logP in data set [1] (log P) is 3.25. The pest or weed control at 100 g/ha in data set [2] (in Zea mays), in data set [3] (in Brassica rapa) and in data set [4] was no less than 80% in each case.
Turning to `C=CCNC(=O)c1cc(C#N)cc(C)c1NC(=O)c1cc(Cn2nnc(C(F)(F)F)n2)nn1-c1ncccc1Cl` [Example 320], the chromatographic logP in data set [1] (log P) amounted to 2.97. Further, the pest or weed control at 100 g/ha in data set [2] (in Zea mays), in data set [3] (in Brassica rapa) and in data set [4] was no less than 80% in each case.
Consider `CNC(=O)c1cc(I)cc(C)c1NC(=O)c1cc(Cn2nnnc2C(F)(F)F)nn1-c1ncccc1Cl` [Example 172], for which, in data set [1] (log P), the chromatographic logP turned out to be 2.86. The pest or weed control at 100 g/ha in data set [2] (in Zea mays), in data set [3] (in Brassica rapa) and in data set [4] was no less than 80% throughout.
Compound `Cc1cc(Cl)cc(C(=O)NC(C)(C)C)c1NC(=O)c1cc(Cn2nnc(C(F)(F)F)n2)nn1-c1ncccc1Cl` [Example 544] yielded a chromatographic logP in data set [1] (log P) of 3.85. Also, the pest or weed control at 100 g/ha in data set [2] (in Zea mays), in data set [3] (in Brassica rapa) and in data set [4] was no less than 80% each time.
For the compound `Cc1cc(I)cc(C(=O)NC(C)C)c1NC(=O)c1cc(Cn2nnnc2C(F)(F)F)nn1-c1ncccc1Br` [Example 504], the chromatographic logP in data set [1] (setting [5]) came out at 3.41. Moreover, the pest or weed control at 100 g/ha in data set [2] (setting [6]), in data set [3] (setting [7]) and in data set [4] was no less than 80% each time.

The values are drawn from patent US8324390B2, “Tetrazole-substituted anthranilamides as pesticides” (Bayer CropScience AG, priority 2008, dated 2012).
